Measured values published in ChEMBL document CHEMBL3877279, “Design, synthesis, in-silico and biological evaluation of novel donepezil derivatives as multi-target-directed ligands for the treatment of Alzheimer's disease” (Eur J Med Chem, 2017).
Activity calls are given as the source filed them. The rule behind the calls is not given here.

Experiments:
Acetylcholinesterase = Acetylcholinesterase (Electrophorus electricus, UniProt O42275); experiment: Inhibition of Electric eel AChE using acetylthiocholine iodide as substrate preincubated for 5 mins followed by substrate addition measured after 2 mins by Ellman's method
Cholinesterase = Cholinesterase (Equus caballus, UniProt P81908); experiment: Inhibition of equine serum BuChE using butyrylthiocholine iodide as substrate preincubated for 5 mins followed by substrate addition measured after 2 mins by Ellman's method; assay type: ADME
[1] = Selectivity index, ratio of IC50 for equine serum BuChE to IC50 for Electric eel AChE
[2] = target: T1, Amyloid-beta precursor protein (Homo sapiens, UniProt P05067); experiment: Inhibition of HFIP-pretreated amyloid beta (1 to 42) (unknown origin) self-induced aggregation at 25 uM after 48 hrs by thioflavin-T fluorescence assay relative to control
[3] = Antioxidant activity assessed as trolox equivalent of AAPH radical scavenging activity at 1 to 25 uM preincubated for 15 mins followed by AAPH addition measured every min for 80 mins by ORAC-FL assay; assay type: functional
[4] = target: T1, Amyloid-beta precursor protein; experiment: Inhibition of HFIP-pretreated amyloid beta (1 to 42) (unknown origin) self-induced aggregation after 48 hrs by thioflavin-T fluorescence assay
[5] = target: T1, Amyloid-beta precursor protein; experiment: Inhibition of amyloid beta (1 to 42) (unknown origin) fibril formation at 25 uM after 48 hrs by uranyl acetate staining based transmission electron microscopic method
[6] = Cytotoxicity against human SH-SY5Y cells assessed as reduction in cell viability after 48 hrs by MTT assay; assay type: toxicity, cell-based
[7] = Cytotoxicity against human SH-SY5Y cells assessed as cell viability at 1 uM after 48 hrs by MTT assay relative to control; assay type: toxicity, cell-based; conditions: read-out: Activity
[8] = Cytotoxicity against human SH-SY5Y cells assessed as cell viability at 5 uM after 48 hrs by MTT assay relative to control; assay type: toxicity, cell-based; conditions: read-out: Activity
[9] = Cytotoxicity against human SH-SY5Y cells assessed as cell viability at 10 uM after 48 hrs by MTT assay relative to control; assay type: toxicity, cell-based; conditions: read-out: Activity
[10] = Cytotoxicity against human SH-SY5Y cells assessed as cell viability at 25 uM after 48 hrs by MTT assay relative to control; assay type: toxicity, cell-based; conditions: read-out: Activity
[11] = Cytotoxicity against human SH-SY5Y cells assessed as cell viability at 50 uM after 48 hrs by MTT assay relative to control; assay type: toxicity, cell-based; conditions: read-out: Activity
[12] = Cytotoxicity against human SH-SY5Y cells assessed as cell viability at 75 uM after 48 hrs by MTT assay relative to control; assay type: toxicity, cell-based; conditions: read-out: Activity
[13] = Cytotoxicity against human SH-SY5Y cells assessed as cell viability at 100 uM after 48 hrs by MTT assay relative to control; assay type: toxicity, cell-based; conditions: read-out: Activity
SH-SY5Y [14] = experiment: Neuroprotective activity against H2O2-induced oxidative stress in human SH-SY5Y cells assessed as inhibition of ROS accumulation after 24 hrs by DCFH-DA probe based fluorescence assay; assay type: functional, cell-based
[15] = Effect on basal ROS level in human SH-SY5Y cells at 5 to 20 uM after 24 hrs by DCFH-DA probe based fluorescence assay; assay type: ADME, cell-based
SH-SY5Y [16] = experiment: Neuroprotective activity against H2O2-induced oxidative stress in human SH-SY5Y cells assessed as increase in cell viability at 10 uM after 24 hrs by MTT assay; assay type: functional, cell-based
SH-SY5Y [17] = experiment: Neuroprotective activity against H2O2-induced morphological changes in human SH-SY5Y cells assessed as decrease in cell rounding at 20 uM after 24 hrs by phase contrast microscopic method; assay type: functional, cell-based
SH-SY5Y [18] = experiment: Neuroprotective activity against H2O2-induced morphological changes in human SH-SY5Y cells assessed as decrease in cell vacuolation at 20 uM after 24 hrs by phase contrast microscopic method; assay type: functional, cell-based
SH-SY5Y [19] = experiment: Neuroprotective activity against H2O2-induced morphological changes in human SH-SY5Y cells assessed as decrease in floated appearance at 20 uM after 24 hrs by phase contrast microscopic method; assay type: functional, cell-based
SH-SY5Y [20] = experiment: Neuroprotective activity against amyloid beta (1 to 42)-induced neurodegeneration in human SH-SY5Y cells assessed as increase in cell viability at 20 uM after 48 hrs by MTT assay; assay type: functional, cell-based
SH-SY5Y [21] = experiment: Neuroprotective activity against amyloid beta (1 to 42)-induced morphological changes in human SH-SY5Y cells assessed as decrease in shrinked cell body at 20 uM after 48 hrs by phase contrast microscopic method; assay type: functional, cell-based
SH-SY5Y [22] = experiment: Neuroprotective activity against amyloid beta (1 to 42)-induced morphological changes in human SH-SY5Y cells assessed as decrease in fading synapses at 20 uM after 48 hrs by phase contrast microscopic method; assay type: functional, cell-based
SH-SY5Y [23] = experiment: Neuroprotective activity against amyloid beta (1 to 42)-induced morphological changes in human SH-SY5Y cells assessed as decrease in loss of adherence at 20 uM after 48 hrs by phase contrast microscopic method; assay type: functional, cell-based
SH-SY5Y [24] = experiment: Neuroprotective activity against amyloid beta (1 to 42)-induced morphological changes in human SH-SY5Y cells assessed as decrease in fragmented or rounded floating cells at 20 uM after 48 hrs by phase contrast microscopic method; assay type: functional, cell-based

Acetylcholinesterase, sequence (O42275 whole entry): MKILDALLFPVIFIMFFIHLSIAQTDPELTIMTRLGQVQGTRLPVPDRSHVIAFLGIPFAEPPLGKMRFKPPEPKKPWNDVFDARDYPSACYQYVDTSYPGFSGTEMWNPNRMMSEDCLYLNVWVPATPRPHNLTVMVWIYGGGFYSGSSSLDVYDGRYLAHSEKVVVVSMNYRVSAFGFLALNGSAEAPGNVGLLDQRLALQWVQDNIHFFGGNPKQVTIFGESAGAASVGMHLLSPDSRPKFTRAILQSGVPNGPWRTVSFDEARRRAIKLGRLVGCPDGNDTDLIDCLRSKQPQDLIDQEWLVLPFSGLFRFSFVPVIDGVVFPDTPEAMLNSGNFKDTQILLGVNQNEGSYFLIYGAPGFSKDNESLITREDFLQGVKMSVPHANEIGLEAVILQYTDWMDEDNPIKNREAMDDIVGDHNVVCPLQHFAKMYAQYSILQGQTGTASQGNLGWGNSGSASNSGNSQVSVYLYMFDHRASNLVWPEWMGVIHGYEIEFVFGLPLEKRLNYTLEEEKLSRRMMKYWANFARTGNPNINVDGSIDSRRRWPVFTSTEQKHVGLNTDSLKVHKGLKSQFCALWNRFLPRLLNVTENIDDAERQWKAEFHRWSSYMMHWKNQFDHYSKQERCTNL
Cholinesterase, sequence (P81908 whole entry): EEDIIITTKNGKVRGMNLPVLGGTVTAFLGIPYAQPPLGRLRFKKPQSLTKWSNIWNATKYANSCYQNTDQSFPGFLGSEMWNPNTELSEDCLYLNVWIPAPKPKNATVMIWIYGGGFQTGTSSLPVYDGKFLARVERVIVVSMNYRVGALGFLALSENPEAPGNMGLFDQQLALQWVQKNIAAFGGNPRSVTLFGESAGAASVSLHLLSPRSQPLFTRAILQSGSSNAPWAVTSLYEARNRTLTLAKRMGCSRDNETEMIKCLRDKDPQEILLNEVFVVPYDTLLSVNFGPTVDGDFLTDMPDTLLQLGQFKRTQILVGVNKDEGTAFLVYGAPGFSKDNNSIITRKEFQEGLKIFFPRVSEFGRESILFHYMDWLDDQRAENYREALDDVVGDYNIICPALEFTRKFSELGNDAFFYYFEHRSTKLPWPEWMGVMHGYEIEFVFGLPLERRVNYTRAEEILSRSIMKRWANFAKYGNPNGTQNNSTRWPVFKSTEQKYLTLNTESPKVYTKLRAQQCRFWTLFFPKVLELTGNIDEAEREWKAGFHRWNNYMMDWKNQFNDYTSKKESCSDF
T1 sequence (P05067 whole entry): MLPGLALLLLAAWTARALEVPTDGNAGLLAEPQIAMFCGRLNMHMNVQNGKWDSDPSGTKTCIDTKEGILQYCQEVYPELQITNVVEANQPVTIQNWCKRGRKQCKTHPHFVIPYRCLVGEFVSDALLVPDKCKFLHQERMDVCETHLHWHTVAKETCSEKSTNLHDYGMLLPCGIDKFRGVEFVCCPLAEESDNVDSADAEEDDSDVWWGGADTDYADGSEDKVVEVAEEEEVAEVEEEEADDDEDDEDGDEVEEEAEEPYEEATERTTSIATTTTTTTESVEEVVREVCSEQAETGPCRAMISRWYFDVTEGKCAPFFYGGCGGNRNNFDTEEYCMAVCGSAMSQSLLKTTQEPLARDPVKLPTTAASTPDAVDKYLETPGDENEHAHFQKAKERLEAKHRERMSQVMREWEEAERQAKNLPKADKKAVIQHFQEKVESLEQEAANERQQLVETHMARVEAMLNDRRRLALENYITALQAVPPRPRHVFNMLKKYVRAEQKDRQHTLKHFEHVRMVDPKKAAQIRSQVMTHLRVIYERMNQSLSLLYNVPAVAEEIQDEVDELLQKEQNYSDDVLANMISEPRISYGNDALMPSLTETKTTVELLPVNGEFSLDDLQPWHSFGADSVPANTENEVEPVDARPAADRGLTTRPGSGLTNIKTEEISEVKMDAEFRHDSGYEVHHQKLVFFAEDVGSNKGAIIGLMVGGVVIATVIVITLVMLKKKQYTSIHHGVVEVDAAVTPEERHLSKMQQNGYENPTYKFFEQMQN

Compound `COc1cc2c(cc1OC)C(=O)/C(=C/c1ccc(N3CCN(c4ccccc4)CC3)cc1)C2` has an IC50 (Acetylcholinesterase) of 1310 nM, an IC50 (Cholinesterase) of 5980 nM and a Ratio IC50 [1] of 4.5. The inhibition [2] was 51.1% and the Activity (umolequiv/umol) [3] was 0.64.

Work on `COc1cc2c(cc1OC)C(=O)/C(=C/c1ccc(N3CCN(Cc4ccccc4)CC3)cc1)C2` yielded an IC50 (Acetylcholinesterase) of 2620 nM, an IC50 (Cholinesterase) of 88 nM and a Ratio IC50 [1] of 0.03. It also gave an inhibition [2] of 48.5% and an Activity (umolequiv/umol) [3] of 1.69.

In the case of `COc1cc2c(cc1OC)C(=O)/C(=C/c1ccc(N3CCN(c4ccc(Cl)cc4)CC3)cc1)C2`, the IC50 (Acetylcholinesterase) is reported as 291 nM, the IC50 (Cholinesterase) is reported as 2220 nM and the Ratio IC50 [1] is reported as 7.6. For the same compound, the inhibition [2] was 59.5% and the Activity (umolequiv/umol) [3] was 1.87.

`COc1cc2c(cc1OC)C(=O)/C(=C/c1ccc(N3CCN(C(=O)c4ccccc4)CC3)cc1)C2` showed an IC50 (Acetylcholinesterase) of 1700 nM, an IC50 (Cholinesterase) of 365 nM and a Ratio IC50 [1] of 0.2. The inhibition [2] was 61.4% and the Activity (umolequiv/umol) [3] was 2.31.

`COc1cc2c(cc1OC)C(=O)/C(=C/c1ccc(N3CCN(C(c4ccccc4)c4ccccc4)CC3)cc1)C2` showed an IC50 (Acetylcholinesterase) of 82 nM, an IC50 (Cholinesterase) of 4890 nM and a Ratio IC50 [1] of 59.6. For the same compound, the inhibition [2] was 78.2%, the IC50 [4] was 12200 nM and the Activity (umolequiv/umol) [3] was 1.41.

In the case of `COc1cc2c(cc1OC)C(=O)/C(=C/c1ccc(N3CCN(c4ccccn4)CC3)cc1)C2`, the IC50 (Acetylcholinesterase) is reported as 105 nM, the IC50 (Cholinesterase) is reported as 1740 nM and the Ratio IC50 [1] is reported as 16.5. For the same compound, the inhibition [2] was 73.3% and the Activity (umolequiv/umol) [3] was 2.08.

For `COc1cc(/C=C/C(=O)CC(=O)/C=C/c2ccc(O)c(OC)c2)ccc1O`, the inhibition [5] was “Active”.

With `COc1cc2c(cc1OC)C(=O)/C(=C/c1ccc(N3CCN(C(=O)c4ccoc4)CC3)cc1)C2` the IC50 (Acetylcholinesterase) was 34 nM, the IC50 (Cholinesterase) was 1970 nM and the inhibition [2] was 80.4%. For the same compound, the IC50 [4] was 10900 nM, the Activity (umolequiv/umol) [3] was 3.89 and the Activity [6] was “Dose-dependent effect”. For the same compound, the viability at 48 h, 1 µM [7] was 96%, the viability at 48 h, 5 µM [8] was 94.4% and the viability at 48 h, 10 µM [9] was 92.3%. For the same compound, the viability at 48 h, 25 µM [10] was 90.1%, the viability at 48 h, 50 µM [11] was 86.9% and the viability at 48 h, 75 µM [12] was 83.7%. For the same compound, the viability at 48 h, 100 µM [13] was 81.1%, the inhibition (SH-SY5Y [14]) was “Dose-dependent effect” and the Activity [15] was “Non-Toxic”. The Activity (SH-SY5Y [16]) was “Active”, the Activity (SH-SY5Y [17]) was “Active” and the Activity (SH-SY5Y [18]) was “Active”. For the same compound, the Activity (SH-SY5Y [19]) was “Active”, the Activity (SH-SY5Y [20]) was “Active” and the Activity (SH-SY5Y [21]) was “Active”. The Activity (SH-SY5Y [22]) was “Active”, the Activity (SH-SY5Y [23]) was “Active” and the Activity (SH-SY5Y [24]) was “Active”.
